Here are results for two molecules from patent publication US12123028B2, “Viral inactivation methods for continuous manufacturing of antibodies” (Bayer HealthCare LLC, priority 2018, dated 2024).

Bounds are passed on as bounds.

Assay [1] has as its system X-MuLV. Description: Dual X-MuLV inactivation by low pH and detergent in mAb protein A eluate, remaining infectivity by TCID50 assay on PG-4 cells. It counts as cell-based, Xenotropic Murine Leukemia Virus. The settings on record: for required inactivation time compared with 0.2% Tween 80 / time required for X-MuLV inactivation: 16° C.; for treatment time to completely inactivate X-MuLV: 18° C. As for the experimental part: […] The pH adjusted eluates were then filtered by a 0.22 um filter. Various volumes of 5% detergent stock solution were then added to the filtered protein A eluates. The low pH protein A eluates containing Mega-10, Tween 80 or Tween 20 were pre-incubated at a 16° C. water bath prior to spiking with X-MuLV at a 1:20 ratio. After a thorough mixing, an aliquot of sample was removed immediately and neutralized with 1 M Tris buffer to stop low pH viral inactivation, then immediately quenched with diluent at 1:12 for Mega-10 or at 1:100 for Tween 20 and Tween 80 to stop viral inactivation by the detergent. The collected sample was designated as a time-zero reference. The remaining spiked eluate was returned to the water bath and the samples were collected at indicated times to evaluate the viral inactivation kinetics. The remaining X-MuLV infectivity in the samples post-inactivation treatment was determined by a TCID50 assay that is an endpoint dilution assay to quantify the amount of virus required to produce a cytopathic effect in 50% of inoculated tissue culture cells. Virus titers were estimated using the Spearman-Karber method and reported as TCID50/mL with a calculated 95% confidence interval (CI). Briefly, a sufficient number of 96-well plates with PG-4 (feline S^+L^−, ATCC#CRL-2032) cells were prepared the day before starting the viral inactivation experiments and incubated overnight in a 37° C. humidified CO2 incubator. A set of ten 3.2 fold dilution of the diluted positive control (1:100) and viral inactivated samples were prepared in a dilution block. Each set of the 11 serial dilutions of the samples were inoculated correspondingly onto wells (100 μL per well) of the first 11 columns in a 96-well plate that had been pre-seeded with PG-4 cells. The 12th column in the same plate was inoculated with the corresponding diluent to serve as non-virus negative control. The positive control was prepared by spiking the filtered neutralized protein A eluate with X-MuLV at a 1:20 ratio. The inoculated plates were then incubated in a 37° C. humidified CO2 incubator for approximate 2 hours. A volume of 100 uL of 2× assay medium (92% McCoy's 5A medium, 4% FBS, 2% Penicillin/Streptomycin, 2% L-Glutamine) was added to each well of the plates at the end of incubation. The plates were then returned to the same incubator, and continued incubation for 6 days. Each well of the plates were scored under a microscope for the presence of cytopathic effect (CPE) and the results were recorded in a scoring sheet. Virus titers were then estimated using the Spearman-Karber method and reported as TCID50/mL with a calculated 95% confidence interval (CI).

Assay [2] concerns retroviruses. Conditions: Triton X-100 ≥0.5%; hold time ≥60 minutes; 15-25° C.; pH 6.0-8.0; clarified, cell-free intermediate of mAb or IgG Fc fusion protein; cited from earlier work.

For `CCCCCCCC/C=C\CCCCCCCC(=O)OCCOCC(OCCO)C1OCC(OCCO)C1OCCO` (stereo not shown) [Tween 80], the “time needed for inactivating X-MuLV to the level below the detection limit” value in assay [1] (dual treatment: mAb2 protein A eluate pH 4.05 with 0.5% Tween 80, 16° C. (120 minutes by pH 4.0 alone at 18° C.)) was 10 min. For the same molecule, the “incubation time needed for inactivation of X-MuLV to the level below the detection limit” value in assay [1] (dual treatment: mAb3 (IgG2) protein A eluate pH 3.97 with 0.5% Tween 80, 16° C. (120 minutes by low pH alone)) stood at 5 min. This molecule returned a required inactivation time in assay [1] (dual treatment: mAb3 protein A eluate pH 3.99 with 0.2% Tween 80, 16° C. (120 minutes without detergent)) of 5 min. Further, the “required inactivation time compared with 0.2% Tween 80” value in assay [1] (dual treatment: mAb3 protein A eluate pH 3.99 with 0.3% Tween 80) and in assay [1] (dual treatment: mAb3 protein A eluate pH 3.99 with 0.5% Tween 80) was “no further reducing of time” in each case. The “time required for X-MuLV inactivation” value in assay [1] (mAb3 protein A eluate containing 0.1% Tween 80 at pH 3.7) is 0 min; in assay [1] (mAb3 protein A eluate containing 0.1% Tween 80 at pH 3.8), 1 min; in assay [1] (mAb3 protein A eluate containing 0.1% Tween 80 at pH 3.9), 2.5 min; in assay [1] (mAb3 protein A eluate containing 0.1% Tween 80 at pH 4.0), 10 min. Also, the “treatment time to completely inactivate X-MuLV” value in assay [1] (mAb4 protein A eluate at pH 4.11 containing 1% Tween 80) amounted to 1 h; in assay [1] (mAb4 protein A eluate at pH 4.20 containing 1% Tween 80) it was 3 h; in assay [1] (mAb4 protein A eluate at pH 4.30 containing 1% Tween 80), 4 h.

Take Triton X-100: the “LRF of retroviral inactivation” value in assay [2] is recorded as no less than 4.0.
